Experiments:
MDA-MB-231 [1] = test: Induction of apoptosis in human MDA-MB-231 cells assessed as viable cells at 5 uM after 48 hrs by Annexin V-FITC/propidium iodide staining based flow cytometry (reference value: 94.9%); type: functional; settings: MDA-MB-231, 48 h, read-out: Activity
Raji [2] = test: Antiproliferative activity against human Raji cells after 3 days by MTT assay; type: functional, cell-based; settings: 72 h
Histone deacetylase 1 = Histone deacetylase 1 (Homo sapiens, UniProt Q13547); test: Inhibition of HDAC1 (unknown origin) using acetylated peptide substrate preincubated for 15 mins followed by substrate addition measured after 60 mins by fluorescence analysis
MDA-MB-231 [3] = test: Induction of apoptosis in human MDA-MB-231 cells assessed as necrotic cells at 2.5 uM after 48 hrs by Annexin V-FITC/propidium iodide staining based flow cytometry (reference value: 0.024%); type: functional
MDA-MB-231 [4] = test: Induction of apoptosis in human MDA-MB-231 cells assessed as late apoptotic cells at 2.5 uM after 48 hrs by Annexin V-FITC/propidium iodide staining based flow cytometry (reference value: 3.82%); type: functional
MDA-MB-231 [5] = test: Induction of apoptosis in human MDA-MB-231 cells assessed as early apoptotic cells at 10 uM after 48 hrs by Annexin V-FITC/propidium iodide staining based flow cytometry (reference value: 1.27%); type: functional
[6] = biological target: Poly [ADP-ribose] polymerase 1 (Homo sapiens, UniProt P09874); test: Inhibition of recombinant full length human N-terminal GST-tagged PARP1 expressed in baculovirus infected Sf9 cells using biotinylated substrate after 1 hr by UV/Vis spectrophotometric analysis
MDA-MB-231 [7] = test: Induction of apoptosis in human MDA-MB-231 cells assessed as necrotic cells at 5 uM after 48 hrs by Annexin V-FITC/propidium iodide staining based flow cytometry (reference value: 0.024%); type: functional
MDA-MB-231 [8] = test: Induction of apoptosis in human MDA-MB-231 cells assessed as early apoptotic cells at 5 uM after 48 hrs by Annexin V-FITC/propidium iodide staining based flow cytometry (reference value: 1.27%); type: functional
[9] = biological target: Poly [ADP-ribose] polymerase 2 (Homo sapiens, UniProt Q9UGN5); test: Inhibition of recombinant human N-terminal GST-tagged PARP2 (2 to 583 residues) expressed in baculovirus infected Sf9 cells using biotinylated substrate after 1 hr by UV/Vis spectrophotometric analysis
MCF7 = test: Antiproliferative activity against human MCF7 cells after 72 hrs by MTT assay; type: functional, cell-based; settings: MCF7, 72 h
HCC1937 = test: Antiproliferative activity against human HCC1937 cells after 3 days by MTT assay; type: functional, cell-based; settings: HCC1937, 72 h
MDA-MB-231 [10] = test: Antiproliferative activity against human MDA-MB-231 cells after 5 days by MTT assay; type: functional, cell-based; settings: MDA-MB-231, 120 h
MDA-MB-231 [11] = test: Induction of apoptosis in human MDA-MB-231 cells assessed as late apoptotic cells at 10 uM after 48 hrs by Annexin V-FITC/propidium iodide staining based flow cytometry (reference value: 3.82%); type: functional
T47D = test: Antiproliferative activity against human T47D cells after 72 hrs by MTT assay; type: functional, cell-based
Raji [12] = test: Potency index, ratio of SAHA IC50 to compound IC50 for human Raji cells; type: functional
[13] = Safety index, ratio of compound IC50 to SAHA IC50 for human MCF10A cells; type: ADME, cell-based, MCF-10A; settings: read-out: Ratio IC50
U-937 = test: Antiproliferative activity against human U937 cells after 72 hrs by MTT assay; type: functional, cell-based; settings: U-937, 72 h
MDA-MB-231 [14] = test: Antiproliferative activity against human MDA-MB-231 cells after 72 hrs by MTT assay; type: functional, cell-based; settings: MDA-MB-231, 72 h
MDA-MB-231 [15] = test: Induction of apoptosis in human MDA-MB-231 cells assessed as viable cells at 10 uM after 48 hrs by Annexin V-FITC/propidium iodide staining based flow cytometry (reference value: 94.9%); type: functional; settings: MDA-MB-231, 48 h, read-out: Activity
MDA-MB-231 [16] = test: Induction of apoptosis in human MDA-MB-231 cells assessed as viable cells at 2.5 uM after 48 hrs by Annexin V-FITC/propidium iodide staining based flow cytometry (reference value: 94.9%); type: functional; settings: MDA-MB-231, 48 h, read-out: Activity
MDA-MB-231 [17] = test: Induction of apoptosis in human MDA-MB-231 cells assessed as late apoptotic cells at 5 uM after 48 hrs by Annexin V-FITC/propidium iodide staining based flow cytometry (reference value: 3.82%); type: functional
HCC827 = test: Antiproliferative activity against human HCC827 cells after 72 hrs by MTT assay; type: functional, cell-based; settings: HCC827, 72 h
MDA-MB-231 [18] = test: Induction of apoptosis in human MDA-MB-231 cells assessed as necrotic cells at 10 uM after 48 hrs by Annexin V-FITC/propidium iodide staining based flow cytometry (reference value: 0.024%); type: functional
K562 = test: Antiproliferative activity against human K562 cells after 72 hrs by MTT assay; type: functional, cell-based; settings: K562, 72 h
HeLa = test: Antiproliferative activity against human HeLa cells after 72 hrs by MTT assay; type: functional, cell-based
MDA-MB-231 [19] = test: Induction of apoptosis in human MDA-MB-231 cells after 48 hrs by Annexin V-FITC/propidium iodide staining based flow cytometry; type: functional, cell-based
MDA-MB-231 [20] = test: Induction of apoptosis in human MDA-MB-231 cells assessed as early apoptotic cells at 2.5 uM after 48 hrs by Annexin V-FITC/propidium iodide staining based flow cytometry (reference value: 1.27%); type: functional
MCF-10A = test: Antiproliferative activity against human MCF10A cells after 72 hrs by MTT assay; type: cell-based
[21] = biological target: T1, Protein deacetylase HDAC6 (Homo sapiens, UniProt Q9UBN7); test: Inhibition of HDAC6 (unknown origin) using acetylated peptide substrate preincubated for 15 mins followed by substrate addition measured after 60 mins by fluorescence analysis
T1 sequence (Q9UBN7 whole entry): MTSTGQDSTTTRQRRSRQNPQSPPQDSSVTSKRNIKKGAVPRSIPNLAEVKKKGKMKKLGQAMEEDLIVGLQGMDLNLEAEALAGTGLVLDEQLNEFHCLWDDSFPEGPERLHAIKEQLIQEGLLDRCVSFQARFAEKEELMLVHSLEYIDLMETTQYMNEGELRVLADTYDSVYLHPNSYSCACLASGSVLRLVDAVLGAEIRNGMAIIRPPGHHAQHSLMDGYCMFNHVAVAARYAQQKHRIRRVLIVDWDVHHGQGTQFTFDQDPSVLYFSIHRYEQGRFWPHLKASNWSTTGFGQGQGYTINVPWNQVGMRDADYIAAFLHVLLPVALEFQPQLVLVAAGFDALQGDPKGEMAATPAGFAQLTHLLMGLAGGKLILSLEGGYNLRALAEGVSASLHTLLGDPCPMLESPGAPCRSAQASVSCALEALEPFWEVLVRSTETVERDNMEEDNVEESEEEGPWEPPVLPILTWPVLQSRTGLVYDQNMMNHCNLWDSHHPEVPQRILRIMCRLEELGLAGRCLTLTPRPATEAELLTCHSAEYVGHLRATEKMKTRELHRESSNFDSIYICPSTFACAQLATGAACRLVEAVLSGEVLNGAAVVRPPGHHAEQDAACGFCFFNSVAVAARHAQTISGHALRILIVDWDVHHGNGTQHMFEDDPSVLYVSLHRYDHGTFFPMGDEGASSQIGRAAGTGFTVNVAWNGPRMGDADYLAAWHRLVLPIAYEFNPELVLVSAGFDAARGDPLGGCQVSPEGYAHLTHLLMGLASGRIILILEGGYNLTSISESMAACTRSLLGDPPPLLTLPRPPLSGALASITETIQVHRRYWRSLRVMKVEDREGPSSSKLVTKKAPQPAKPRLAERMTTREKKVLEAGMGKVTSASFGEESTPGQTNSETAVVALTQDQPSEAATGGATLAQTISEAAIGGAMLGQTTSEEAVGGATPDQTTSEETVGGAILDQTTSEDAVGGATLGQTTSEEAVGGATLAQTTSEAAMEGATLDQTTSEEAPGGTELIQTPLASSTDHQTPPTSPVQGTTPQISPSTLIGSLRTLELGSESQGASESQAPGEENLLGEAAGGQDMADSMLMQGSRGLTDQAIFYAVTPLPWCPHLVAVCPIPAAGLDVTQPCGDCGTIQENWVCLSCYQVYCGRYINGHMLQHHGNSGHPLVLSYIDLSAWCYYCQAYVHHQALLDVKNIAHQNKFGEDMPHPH

Chain of Histone deacetylase 1 (Q13547 whole entry): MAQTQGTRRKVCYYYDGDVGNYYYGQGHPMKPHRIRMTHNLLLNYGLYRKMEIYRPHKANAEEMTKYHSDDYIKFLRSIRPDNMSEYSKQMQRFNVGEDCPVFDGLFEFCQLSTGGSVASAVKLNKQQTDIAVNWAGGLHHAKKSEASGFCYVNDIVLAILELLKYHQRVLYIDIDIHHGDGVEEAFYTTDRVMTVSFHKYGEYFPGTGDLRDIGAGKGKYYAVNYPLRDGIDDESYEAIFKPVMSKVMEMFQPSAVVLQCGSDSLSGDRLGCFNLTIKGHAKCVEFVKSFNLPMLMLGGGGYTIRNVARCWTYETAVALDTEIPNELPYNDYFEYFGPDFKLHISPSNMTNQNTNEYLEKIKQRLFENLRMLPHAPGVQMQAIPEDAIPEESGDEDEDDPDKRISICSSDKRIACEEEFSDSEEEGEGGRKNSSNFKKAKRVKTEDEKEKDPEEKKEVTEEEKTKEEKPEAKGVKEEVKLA
Chain of Poly [ADP-ribose] polymerase 1 (P09874 whole entry): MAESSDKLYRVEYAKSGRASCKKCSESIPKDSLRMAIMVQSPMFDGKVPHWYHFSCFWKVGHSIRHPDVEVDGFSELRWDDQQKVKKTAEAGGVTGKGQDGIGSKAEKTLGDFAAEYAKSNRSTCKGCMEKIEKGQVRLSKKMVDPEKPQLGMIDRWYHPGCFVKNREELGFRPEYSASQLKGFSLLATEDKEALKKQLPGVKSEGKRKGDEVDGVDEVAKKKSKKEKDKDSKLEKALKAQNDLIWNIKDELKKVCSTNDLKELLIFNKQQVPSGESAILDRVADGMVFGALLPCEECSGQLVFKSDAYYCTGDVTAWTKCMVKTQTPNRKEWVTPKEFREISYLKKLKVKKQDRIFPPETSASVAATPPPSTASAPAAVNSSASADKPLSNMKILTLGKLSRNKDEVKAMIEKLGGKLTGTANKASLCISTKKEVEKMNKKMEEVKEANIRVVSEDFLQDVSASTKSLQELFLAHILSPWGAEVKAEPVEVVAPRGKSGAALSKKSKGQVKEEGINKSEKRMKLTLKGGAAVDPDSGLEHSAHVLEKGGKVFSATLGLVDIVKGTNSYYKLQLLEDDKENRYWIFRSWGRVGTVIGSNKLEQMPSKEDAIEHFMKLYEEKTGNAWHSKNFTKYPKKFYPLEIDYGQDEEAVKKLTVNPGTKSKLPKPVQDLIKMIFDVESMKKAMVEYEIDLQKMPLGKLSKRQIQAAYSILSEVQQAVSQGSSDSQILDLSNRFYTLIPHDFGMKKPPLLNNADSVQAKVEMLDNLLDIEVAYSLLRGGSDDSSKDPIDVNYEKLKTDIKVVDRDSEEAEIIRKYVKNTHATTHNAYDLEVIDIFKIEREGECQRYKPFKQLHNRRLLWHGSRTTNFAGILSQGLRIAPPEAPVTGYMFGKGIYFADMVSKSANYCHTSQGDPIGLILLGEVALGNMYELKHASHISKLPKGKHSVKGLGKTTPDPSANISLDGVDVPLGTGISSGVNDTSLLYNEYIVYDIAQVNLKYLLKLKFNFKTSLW
Chain of Poly [ADP-ribose] polymerase 2 (Q9UGN5 whole entry, the tested form may be a part): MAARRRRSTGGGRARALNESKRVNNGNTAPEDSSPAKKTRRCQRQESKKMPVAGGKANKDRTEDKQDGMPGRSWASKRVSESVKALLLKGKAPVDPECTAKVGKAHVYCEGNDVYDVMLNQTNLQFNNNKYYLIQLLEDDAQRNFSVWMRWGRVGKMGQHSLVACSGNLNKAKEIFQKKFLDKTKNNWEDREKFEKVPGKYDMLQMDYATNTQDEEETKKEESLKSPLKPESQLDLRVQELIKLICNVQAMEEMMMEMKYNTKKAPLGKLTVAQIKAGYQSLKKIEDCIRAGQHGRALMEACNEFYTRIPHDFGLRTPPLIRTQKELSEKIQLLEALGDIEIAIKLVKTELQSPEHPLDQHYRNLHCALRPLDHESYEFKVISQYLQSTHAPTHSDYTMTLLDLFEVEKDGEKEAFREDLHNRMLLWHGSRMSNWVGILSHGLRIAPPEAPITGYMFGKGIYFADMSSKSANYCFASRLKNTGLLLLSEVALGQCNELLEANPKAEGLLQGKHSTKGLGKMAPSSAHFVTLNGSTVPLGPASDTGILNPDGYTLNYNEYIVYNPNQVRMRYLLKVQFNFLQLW

IC50 (Raji [2]): 810 nM | IC50 (Histone deacetylase 1): 38.2 nM | IC50 [6]: 15 nM | IC50 [9]: 2.53 nM | IC50 (MCF7): 8080 nM | IC50 (HCC1937): 450 nM | IC50 (MDA-MB-231 [10]): 940 nM | IC50 (T47D): 4850 nM | IC50 (U-937): 3880 nM | IC50 (MDA-MB-231 [14]): 2680 nM | IC50 (HCC827): 2960 nM | IC50 (K562): 7580 nM | IC50 (HeLa): 6490 nM | IC50 [21]: 10.2 nM
SMILES: O=C(/C=C/c1ccc(CN2CCN(C(=O)c3cc(Cc4n[nH]c(=O)c5ccccc45)ccc3F)CC2)cc1)NO
viability at 5 µM (MDA-MB-231 [1]): 80.2% | Activity (MDA-MB-231 [3]): 0.34% | Activity (MDA-MB-231 [4]): 5.56% | Activity (MDA-MB-231 [5]): 35.2% | Activity (MDA-MB-231 [7]): 0.634% | Activity (MDA-MB-231 [8]): 11.9% | Activity (MDA-MB-231 [11]): 40.8% | Ratio IC50 (Raji [12]): 12 | selectivity ratio [13]: 8.2 | viability at 10 µM (MDA-MB-231 [15]): 22.3% | viability at 2.5 µM (MDA-MB-231 [16]): 88.1% | Activity (MDA-MB-231 [17]): 7.2% | Activity (MDA-MB-231 [18]): 1.77% | Activity (MDA-MB-231 [19]): Dose-dependent effect | Activity (MDA-MB-231 [20]): 6.01% | IC50 (MCF-10A): 17400 nM

From ChEMBL document CHEMBL4052667 (Bioorg Med Chem, 2017)
